Measurements: patent US6384254B1, “Quaternary ammonium salt-containing polysiloxane, making method, and fiber or fabric treating agent composition” (Shin-Etsu Chemical Co., Ltd., priority 1999, dated 2002)

Test system: stephelococcus Aureus
Experiment: percentage loss of bacteria on treated cloth after ten launderings, shaking flask method
Assay type: cell-based
Conditions: polyester/cotton (65%/35%) cloth dipped in treating bath (2.0 wt% silicone solids; CE1 3.5 wt% solids), laundered ten times by 103 method of JIS L-0217
Method: The emulsion was diluted to an aqueous solution having a silicone solid concentration of 2.0% by weight. A polyester/cotton (65%/35%) mixed broad-cloth was dipped in the solution for one minute, nipped through rolls at a nip rate of 100%, dried at 135° C. for one minute and heat treated at 165° C. for 2 minutes. The thus treated cloth was laundered ten times in accordance with the 103 method of JIS L-0217 whereupon a percentage loss of stephelococcus Aureus was compared by the shaking flask method. The texture of the treated cloth was examined by finger touch before and after washing.
For comparison purpose, using a 38% solids methanol solution of 3-(trimethoxysilyl)propyldimethyloctadecylammonium chloride, a 3.5 wt% solids aqueous solution was prepared. A similar experiment was carried out. This is Comparative Example 1.

For `CCCCCCCCCCCCCCCCCC[N+](C)(C)CCC[Si](OC)(OC)OC.[Cl-]` [CE1, 3-(trimethoxysilyl)propyldimethyloctadecylammonium chloride], the “Bacteria loss after washing (%)” value was 35%.
